Laboratory results from patent US11963962B2, “Platelet count-agnostic methods of treating myelofibrosis” (Sierra Oncology, Inc., priority 2018, dated 2024).
Marks after values point to notes of the source that are not given here.

Columns and labels:
Assay type in all cases: in vivo, human
myelofibrosis [1] = experiment: Combined analysis of TI response in TD patients from SIMPLIFY-1, SIMPLIFY-2 and '1672; settings: combined TD patients from SIMPLIFY-1, SIMPLIFY-2 and '1672 (n=152)
Source text: This aggregate data is representative of a continuum of Intermediate/High Risk MF patients.

myelofibrosis [2] = experiment: SIMPLIFY-1 dynamic and time-to-event analyses of RBC transfusions
Source text: The SIMPLIFY-1 (S1) trial, a double-blind, active-controlled Phase 3 study in which 432 patients received randomized treatment with MMB or RUX for 24 weeks was previously reported (Mesa R A, Kiladjian J J, Catalano J V. et al. “Simplify-1: A phase III randomized trial of momelotinib versus ruxolitinib in j anus kinase inhibitor—naïve patients with myelofibrosis”, Journal of Clinical Oncology, 2017; 35:3844-50).
Since transfusion burden is of significant concern to clinicians and patients, to better understand the dynamics of RBC transfusions we further examined the S1 data through statistical models utilizing a variety of novel anemia benefit endpoints including time until transfusion and overall intensity of transfusions across time. The proportions of patients with 0 and 4 transfusions were calculated and time-to-event analyses examining time-to-first and time-to-fifth units transfused also conducted. Since transfusions typically comprise 2 units, the fifth unit transfused represents a de facto third transfusion event. The number of units transfused were also considered to be recurrent events and examined with and without patients' baseline characteristics as covariates. Finally, a mixture model, based on a zero-inflated negative binomial (ZINB) distribution fit to the transfusion data, was employed to compare between the treatment groups the proportions of subjects with zero transfusion burden and the mean transfusion rates.

myelofibrosis [3] = experiment: SIMPLIFY-1 Phase 3 trial: splenic response rate (SRR); settings: for SRR Responders / SRR proportion (Wilson 95% CI) / SRR Absolute risk difference (Newcombe 95% CI): SIMPLIFY 1, 24 weeks; for SRR Absolute risk difference (Newcombe 95% CI): MMB vs Control
Method: In the SIMPLIFY-1 trial (NCT01969838), the efficacy and safety of MMB versus ruxolitinib (RUX) was studied in patients with myelofibrosis who were naïve to treatment with a JAK inhibitor and a platelet count of ≥50×10^9/L. Patients (N=432) with high risk or intermediate-2 risk or symptomatic intermediate-1 risk myelofibrosis received 24 weeks of treatment with 200 mg MMB once daily or 20 mg RUX twice a day (or per label), after which all patients could receive open-label momelotinib. […] The primary endpoint was a reduction by at least 35% in the spleen volume at 24 weeks compared with baseline.
FIG. 8A: SIMPLIFY-1 study of MMB in a first line population previously untreated with JAKi. For SIMPLIFY-1, the goal was non-inferiority over ruxolitinib (RUX) (MMB: N=215 subjects, and RUX: N=217 subjects). FIG. 8B: SIMPLIFY-2 study of second line population of anemic or thrombocytopenic subjects previously treated with RUX (red blood cell (RBC) transfusions on RUX=64%. RUX dose adjustment for: thrombocytopenia=21%; anemia/hematoma=35%). For SIMPLIFY-2, the goal was superiority over best available treatment (BAT) (MMB: N=104 subjects, and BAT: N=52 subjects). In both SIMPLIFY-1 and SIMPLIFY: Primary endpoint: >=35% reduction in spleen volume at 24 weeks. Secondary endpoints: Total symptom score (TSS) response at 24 weeks. Effects on RBC transfusion requirements.
The SIMPLIFY 1 clinical trial data was reanalyzed for subgroups of subjects having particular baseline platelet counts in the MMB versus RUX arms of the study.
Patient data was analyzed according to the following baseline platelet count (PLT) subgroups and in particular according to the threshold PLT of 150×10^9/L: 1) PLT<50×10^9/L; 2) 50×10^9/L≤PLT<100×10^9/L; 3) 100×10^9/L≤PLT<150×10^9/L. The reanalyzed data is presented in Table 13 (SIMPLIFY 1). Selected data is also illustrated in the following figures.

[4] = SIMPLIFY-1, 24 week randomized treatment period

Q: What does the source list for `Cl.N#CCNC(=O)c1ccc(-c2ccnc(Nc3ccc(N4CCOCC4)cc3)n2)cc1` [MMB, N-(cyanomethyl)-4-(2-(4-morpholinophenylamino)pyrimidin-4-yl)benzamide]?
A: ≥8 week transfusion independence rate (myelofibrosis [1]): 48.7%; ≥12 week transfusion independence rate (myelofibrosis [1]): 44.1%; Kaplan-Meier estimate of the proportion of patients who did not require any units transfused (myelofibrosis [2]; [4]): 73%; proportion of patients requiring 4 or fewer units (myelofibrosis [2]; [4]): 83%; factor of increase of the odds of having zero units transfused (myelofibrosis [2]; SIMPLIFY-1, first 24 weeks, ZINB covariate model, MMB vs RUX): 9.3; hazard ratio, units transfused as recurrent events (myelofibrosis [2]; SIMPLIFY-1, MMB vs RUX, models with and without baseline covariates): 0.522; SRR Responders (myelofibrosis [3]; 50 ≤ PLT < 100 ×10^9/L): 7; SRR proportion (Wilson 95% CI) (myelofibrosis [3]; 50 ≤ PLT < 100 ×10^9/L): 0.39; SRR Absolute risk difference (Newcombe 95% CI) (myelofibrosis [3]; 50 ≤ PLT < 100 ×10^9/L): 0.39; SRR Responders (myelofibrosis [3]; 100 ≤ PLT < 150 ×10^9/L): 4; SRR proportion (Wilson 95% CI) (myelofibrosis [3]; 100 ≤ PLT < 150 ×10^9/L): 0.14; SRR Absolute risk difference (Newcombe 95% CI) (myelofibrosis [3]; 100 ≤ PLT < 150 ×10^9/L): 0.08; SRR Responders (myelofibrosis [3]; ITT): 57; SRR proportion (Wilson 95% CI) (myelofibrosis [3]; ITT): 0.27; SRR Absolute risk difference (Newcombe 95% CI) (myelofibrosis [3]; ITT): −0.03; subjects who did not achieve a spleen response on ruxolitinib but did so after 24 weeks of additional momelotinib treatment (myelofibrosis [3]; SIMPLIFY 1, crossover arm): 16.5%; spleen response (SRR) at any time in the open label phase (myelofibrosis [3]; SIMPLIFY 1, momelotinib arm): 46.2%; SRR (myelofibrosis [3]; SIMPLIFY 1, overall): 26.5%; SRR (myelofibrosis [3]; SIMPLIFY 1, week 24, ITT, all patients): 27%; SRR (myelofibrosis [3]; SIMPLIFY 1, week 24, ITT, platelets 50-100 (subgroup 2)): 39%; SRR (myelofibrosis [3]; SIMPLIFY 1, week 24, ITT, platelets 100-150 (subgroup 3)): 14% ‡; SRR (myelofibrosis [3]; SIMPLIFY 1, week 24, baseline TSS ≥ 6, all patients): 25%; SRR (myelofibrosis [3]; SIMPLIFY 1, week 24, baseline TSS ≥ 6, platelets 50-100 (subgroup 2)): 43%; SRR (myelofibrosis [3]; SIMPLIFY 1, week 24, baseline TSS ≥ 6, platelets 100-150 (subgroup 3)): 14% ‡; SRR (myelofibrosis [3]; SIMPLIFY 1, week 24, baseline TSS ≥ 10, all patients): 24%; SRR (myelofibrosis [3]; SIMPLIFY 1, week 24, baseline TSS ≥ 10, platelets 50-100 (subgroup 2)): 42%; SRR (myelofibrosis [3]; SIMPLIFY 1, week 24, baseline TSS ≥ 10, platelets 100-150 (subgroup 3)): 13% ‡; spleen response compared with RUX (myelofibrosis [3]; SIMPLIFY 1, p=0.011): statistically non-inferior to RUX
